Assays:
d(CCCCGGGG)2 = format: physicochemical
From the text: (§1) The local electrostatic potential (Ψ) in the major groove is given by the following Equation 3. Ψ=−[R·T·ln 10/(NA·e)]ΔpKa Eq. (3) Where ΔpKa is the difference between the free Fluorescein-neomycin and the Fluorescein-neomycin in the presence of the electrostatic environment, R is the universal gas constant, T is the absolute temperature in kelvin, NA is the Avogadro constant, and e is the elementary charge. R=8.312 J mol−1K−1, T=298.2K, NA=6.023×10^23 and e=1.602×10^−19; Ψ is expressed in mV. Thus a shift of +1 in the value of the pKa implies an electrostatic potential of […]. […] Based on this Δpka of 0.86, the electrostatic potential of the microenvironment for the fluorescein moiety in the complex is determined to be −50.9 mV.
(§2) Determination of the pKa was done using chemometric analysis of the absorption profiles at various pH values of the covalently attached fluorescein moiety (Kubista, M., et al., (1993) Anal. Chem. 65, 994-998, Kubista, M., et al., (1995) Anal. Chim. Acta. 302, 121-125.2, 3). The pH dependent absorption profile of free fluorescein-neomycin was first analyzed to determine its pKa. […] The electrostatic potential (P) calculated from the shift in pKa, and the ITC derived binding constant (K). Electrostatic potential experiments performed in 100 mM NaCl, 10 mM SC, 0.5 mM EDTA at 25° C. ITC experiments performed in 50 mM KCl, 10 mM SC, 0.5 mM EDTA (pH 6.0) at 25° C. […] Fluorescein-neomycin concentration was 10 μM. Table 1 represents the pKa values determined from the inflection point of the pH dependent absorbance scans of free fluorescein-neomycin, fluorescein-neomycin with one molar equivalent d(CCCCGGGG)2 and d(GGGGCCCC)2. The electrostatic potential (Y) calculated from the shift in pKa, and the ITC derived binding constant (K).

d(GGGGCCCC)2 = format: physicochemical
From the text: as §1, §2

[1] = test system: 13 different nucleic acid structures; assay: Competition dialysis, whole panel; format: binding; settings: Na^+ concentration increases from 100 to 200 mM
From the text: (§3) Disclosed is the use of fluorescent aminosugar probes such as F-neo (42a) to probe a variety of nucleic acid targets. Competition dialysis was used as a nucleic acid screening technique to illustrate the binding of F-neo (42a) to different nucleic acid structures.
(§4) Competition dialysis studies using a fluorescein-neomycin conjugate (F-neo (42a)). […] Comparative binding of F-neo (42a) to 13 different nucleic acid structures was examined which included single strand nucleic acids [poly(dT), poly(A), poly(U)], duplexes [poly(dA).poly(dT), poly(rA).poly(dT), poly(rA).poly(rU), poly(dA).poly(rU), poly(dG).poly(dC), calf thymus], triplexes [poly(dA).2poly(dT), poly(rA).2poly(rU)], i-motif (polydC) and 16S A-site rRNA (SEQ ID No. 1). The amount of F-neo (42a) bound to each nucleic acid is shown as a bar graph in FIG. 13. Because all nucleic acids are dialyzed simultaneously in the same ligand solution, the amount of bound F-neo (42a) is directly proportional to its affinity for each nucleic acid. […] 200 μL of different nucleic acids (7.5 μM per monomeric unit of each polymer) was dialyzed for 72 h with 400 mL 100 nM ligand in 6 mM Na2HPO4, 2 mM NaH2PO4, 1 mM Na2EDTA, pH 7.0 and various Na+ concentrations as indicated.
The binding of F-neo (42a) to nucleic acids is affected by the salt concentration. […]

[2] = test system: hybrid duplex poly(dA).poly(rU); assay: Competition dialysis; format: binding; settings: under these salt conditions (100-200 mM Na^+)
From the text: as §3, §4
(§5) F-neo (42a) prefers to bind to 16S A-site rRNA yielding a bound ligand concentration of 85 nM in 100 mM Na^+, 50 nM in 150 mM Na^+, and 15 nM in 200 mM Na^+ is shown in FIG. 15.

[3] = test system: RNA triplex poly(rA).2poly(rU); assay: Competition dialysis; format: binding
From the text: as §3, §4, §5

[4] = test system: RNA duplex poly(rA).poly(rU); assay: Competition dialysis; format: binding; settings: under these salt conditions (100-200 mM Na^+)
From the text: as §3, §4, §5

[5] = test system: DNA duplex poly(dA).poly(dT), hybrid duplex poly(rA).poly(dT), calf thymus DNA, i-motif DNA, and all single-stranded nucleic acids; assay: Competition dialysis; format: binding
From the text: as §3, §4, §5

[6] = electrostatic potential calculated from the shift in pKa
[7] = versus free fluorescein-neomycin

With `NCC1O[C@H](OC2C(O)C(OC3C(O)[C@H](N)CC(N)[C@H]3O[C@H]3OC(CN)[C@@H](O)C(O)C3N)O[C@@H]2CSCCNC(=O)CCSCC(=O)Nc2ccc(-c3c4ccc(=O)cc-4oc4cc(O)ccc34)c(C(=O)O)c2)C(N)C(O)[C@@H]1O` (stereo partly shown) [F-neo (42a), Neomycin-Fluorescein Conjugate] the “Ψ (mV)” value (d(CCCCGGGG)2; [6]) was −15.13 mV, the pKa (d(CCCCGGGG)2; one molar equivalent d(CCCCGGGG)2, 100 mM NaCl, 10 mM SC, 0.5 mM EDTA at 25° C.) was 6.83 and the ΔpKa (d(CCCCGGGG)2; [7]) was 0.26. For the same compound, the “Ψ (mV)” value (d(GGGGCCCC)2; [6]) was −25.61 mV, the pKa (d(GGGGCCCC)2; one molar equivalent d(GGGGCCCC)2, 100 mM NaCl, 10 mM SC, 0.5 mM EDTA at 25° C.) was 7.01 and the ΔpKa (d(GGGGCCCC)2; [7]) was 0.44. The “decrease of amount bound for each nucleic acid structure” value [1] was 4-5 times, the bound drug [2] was 10 to 20 nM and the “bound F-neo (42a)” value ([3]; 100 mM Na^+) was 60 nM. For the same compound, the “bound F-neo (42a)” value ([3]; 150 mM Na^+) was 20 nM, the “bound F-neo (42a)” value ([3]; 200 mM Na^+) was 5 nM and the bound drug [4] was 10 to 20 nM. For the same compound, the “binding in competition dialysis” value [5] was “moderate to very weak binding”.

— patent publication US10203334B2, “Methods and compositions related to nucleic acid binding assays” (Nubad, LLC, priority 2012, dated 2019)
